Test results from patent US12251379B2, “Methods of inhibiting formation of alpha synuclein aggregates” (THE REGENTS OF THE UNIVERSITY OF CALIFORNIA, priority 2018, dated 2025).

Tests used:
[1] = tested on: eicosanoids metabolites in the striatum; experiment: Oxylipin profiling of striatum from MPTP-treated mice; assay type: in vivo, mouse; details: MPTP 10 mg/kg×3 IP, 7 days after injection; mean +/− SEM
Protocol: Oxylipin profiling. […] Striatum was dissected from brain, and the samples were stored at −80° C. before assay. Measurement of eicosanoids was performed using the previous method (59).

[2] = tested on: MPTP-induced neurotoxicity in the striatum and SN; experiment: MPTP-induced mouse model of PD: immunohistochemistry of DAT and TH; details: MPTP 10, 15, or 20 mg/kg ×3 IP, 2-h intervals; 7 days after injection
[3] = tested on: ER stress, oxidative stress, sEH and α-synuclein proteins in the mouse striatum; experiment: Western blot analysis of mouse striatum after MPTP; assay type: in vivo
Protocol: Western blot analysis of mouse brain samples. Western blot analysis was performed as reported previously (53,56). Mice were killed by cervical dislocation and brains were rapidly removed from the skull, and the striatum of mice were dissected on ice. The tissue samples were homogenized in Laemmli lysis buffer. […] Proteins were transferred onto polyvinylidenedifluoride (PVDF) membranes using a Trans Blot Mini Cell (Bio-Rad). For immunodetection, the blots were blocked with 2% BSA in TBST (TBS+0.1% Tween-20) for 1 h at room temperature (RT), and kept with primary antibodies overnight at 4° C. […] After final three washes with TBST, bands were detected using enhanced chemiluminescence (ECL) plus the Western Blotting Detection system (GE Healthcare Bioscience). Images were captured with a ChemDoc imaging system (Bio-Rad), and the immunoreactive bands were analysis by Image Lab software.

sEH = sEH (Homo sapiens (Human), UniProt P34913); details: cited from earlier work
[4] = pH 7.4; cited from earlier work
[5] = PTZ induced seizure model; Example 52 and FIG. 7 of WO 2015/148954; cited from earlier work
[6] = tested on: MPTP-induced neurotoxicity in the mouse SN; details: cited from earlier work

sEH, sequence (P34913 whole entry): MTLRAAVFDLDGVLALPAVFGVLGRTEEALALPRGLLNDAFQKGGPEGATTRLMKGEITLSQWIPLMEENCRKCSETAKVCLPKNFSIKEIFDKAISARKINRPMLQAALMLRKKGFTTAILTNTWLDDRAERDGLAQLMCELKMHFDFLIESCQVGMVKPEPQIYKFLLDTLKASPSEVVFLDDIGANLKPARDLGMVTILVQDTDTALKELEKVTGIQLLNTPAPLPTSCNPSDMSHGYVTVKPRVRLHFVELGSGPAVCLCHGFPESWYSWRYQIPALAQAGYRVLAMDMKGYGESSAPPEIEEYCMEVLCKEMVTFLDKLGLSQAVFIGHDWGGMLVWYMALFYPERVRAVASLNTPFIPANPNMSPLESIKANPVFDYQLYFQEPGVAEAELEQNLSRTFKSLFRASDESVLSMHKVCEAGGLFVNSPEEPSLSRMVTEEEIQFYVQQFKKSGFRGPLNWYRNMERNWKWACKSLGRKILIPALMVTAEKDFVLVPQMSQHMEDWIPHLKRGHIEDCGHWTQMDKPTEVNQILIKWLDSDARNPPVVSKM

SMILES: CN1CC=C(c2ccccc2)CC1 [MPTP, 1-methyl-4-phenyl-1,2,3,6-tetrahydropyridine]
- Level of 5(6)-EpETrE in the striatum [1]: 544.908 ± 19.111
- Level of 6-keto-PGF1a in the striatum [1]: 20.015 ± 1.352
- Level of 8(9)-EpETrE in the striatum [1]: 19.048 ± 1.310
- Level of 9(10)-EpOME in the striatum [1]: 6.641 ± 0.431
- Level of 9,10,13-TriHOME in the striatum [1]: 33.635 ± 2.452
- Level of 9,10-DiHOME in the striatum [1]: 1.346 ± 0.158
- Level of 9,12,13-TriHOME in the striatum [1]: 59.487 ± 4.168
- Level of 9-HODE in the striatum [1]: 41.360 ± 3.045
- Level of 9-oxo-ODE in the striatum [1]: 46.977 ± 5.160
- Level of 10(11)-EpDPE in the striatum [1]: 9.530 ± 0.829
- Level of 11(12)-EpETrE in the striatum [1]: 61.583 ± 4.605
- Level of 11-HETE in the striatum [1]: 114.056 ± 5.188
- Level of 12(13)-EpOME in the striatum [1]: 7.073 ± 0.689
- Level of 12,13-DIHOME in the striatum [1]: 8.348 ± 1.710
- Level of 12-HETE in the striatum [1]: 136.621 ± 26.845
- Level of 13-HODE in the striatum [1]: 58.399 ± 5.240
- Level of 14(15)-EpETrE in the striatum [1]: 77.976 ± 11.479
- Level of 15,16-DiHODE in the striatum [1]: 3.667 ± 0.609
- Level of 15-HETE in the striatum [1]: 129.113 ± 6.703
- Level of 19,20-DiHDPE in the striatum [1]: 5.310 ± 0.523
- Level of EKODE in the striatum [1]: 23.007 ± 4.170
- Level of PGD2 in the striatum [1]: 127.452 ± 4.968
- Level of PGE2 in the striatum [1]: 13.830 ± 1.069
- Level of PGF2a in the striatum [1]: 160.704 ± 7.212
- Level of TXB2 in the striatum [1]: 98.406 ± 4.740
- DAT and TH density in the striatum and TH-positive cell number in the SN compared with control mice [2]: significant reductions
- phosphorylated α-synuclein/α-synuclein ratio in the striatum compared with control mice ([3]; MPTP 10 mg/kg×3): significant increase
- expression of GSH, iNOS, and SOD in the striatum ([3]; MPTP 10 mg/kg×3, 7 days after injection): alterations
- sEH protein in the striatum compared with control mice ([3]; MPTP 10 mg/kg×3, three or 7 days after injections): significant increase

SMILES: CCCCCCCCCCCCNC(=O)NC12CC3CC(CC(C3)C1)C2 [ADU, N-Adamantyl-N′-dodecyl urea]
- activity on sEH (sEH): particularly high activity

SMILES: CC[C@H](C)C(=O)N1CCC(NC(=O)Nc2ccc(OC(F)(F)F)c(F)c2)CC1 [compound 26]
- w.s. (water solubility) [4]: 1 µM

SMILES: O=C(Nc1ccc(OC(F)(F)F)c(F)c1)NC1CCN(C(=O)C2CCOCC2)CC1 [Compound 29, 1-(3-fluoro-4-(trifluoromethoxy)phenyl)-3-(1-(tetrahydro-2H-pyran-4-carbo-nyl)piperidin-4-yl)urea]
- crossing of the blood-brain barrier [5]: cross the blood-brain barrier

SMILES: O=C(O)CCCCCCCCCCCNC(=O)NC12CC3CC(CC(C3)C1)C2 [AUDA, 12-(3-Adamantan-1-yl-ureido)dodecanoic acid]
- MPTP-induced neurotoxicity, posttreatment ([6]; posttreatment): did not attenuate
- MPTP-induced loss of TH-positive cells in the mouse SN, pretreatment ([6]; pretreatment): attenuated
